Consider one compound from patent US10426757B2, “Compositions and methods for promoting intestinal stem cell and/or non-stem progenitor cell function” (Whitehead Institute for Biomedical Research, priority 2014, dated 2019).

Entries after “also recorded” stand apart in the source; their conditions may differ.

One assay has as its system β-catenin target genes. Briefly: Single cell qPCR of β-catenin target genes. It counts as in vivo, mouse. The note with it: ISCs and progenitors from GW501516-treated mice. Here is the method: For one-tube single-cell sequence-specific pre-amplification, individual primer sets of β-catenin target genes (total of 96) were pooled to 0.1 mM final concentration for each primer. Single cells were directly sorted into 96 well plates containing 5 ul RT-PCR master mix (2.5 ul CellsDirect reaction mix, Invitrogen; 0.5 ul primer pool; 0.1 ul RT/Taq enzyme, Invitrogen; 1.9 ul nuclease free water) in each well. Immediately after, plates were placed on PCR machine for pre-amplification. Sequence specific pre-amplification PCR protocol was as following: 1) 60 minutes at 50° C. for cell lyses and sequence specific reverse transcription, 2) 3 minutes at 95° C. for reverse transcriptase inactivation and Taq polymerase activation. Then, cDNA was amplified by 20 cycles of 15 seconds at 95° C. for initial denaturation, […] at 60° C. for annealing and elongation. After pre-amplification, samples were diluted 1:5 prior to high throughput microfluidic real time PCR analysis using Fluidgm platform. […] Threshold crossing (Ct) values were calculated using the BioMark Real-Time PCR Analysis software (Fluidgm). […] Fold-changes were calculated as the difference of median of log2 expression levels for the two cell populations. […]
(In general: In qPCR the cycle at which signal appears reflects the starting amount.)

In the next assay the test system is PPAR-δ target genes. In words: PPAR-δ target gene and protein expression in flow sorted ISCs and progenitors (qRT-PCR, immunoblot, RNA-seq). It counts as in vivo, mouse. The conditions noted are these: GW501516 for 4 weeks, protein level. The source says:
Antibodies: rabbit polyclonal anti-PPAR-δ (1:100, Thermo PA1-823A), rabbit polyclonal anti-Cpt1a (1:250, ProteinTech 15184-1-AP), rabbit polyclonal anti-HMGCS2 (1:500, Sigma AV41562), rabbit monoclonal anti-FABP1 (1:1000, Abcam ab129203), rabbit polyclonal anti-γ-tubulin (1:1000, Sigma T5192). Lgr5-GFP^hi ISCs or GFP^low progenitors were sorted directly into sample buffer and boiled for five minutes. Samples were resolved by SDS-PAGE and analyzed by immunoblotting with goat anti-rabbit IgG-HRP secondary antibodies (1:10,000, Santa Cruz Biotechnology sc-2054) and Western Lightning Plus-ECL detection kit (Perkin Elmer, NEL 104001EA).
Cells were sorted into Tri Reagent (Life Technologies) and total RNA was isolated according to the manufacturer's instructions with following modification: the aqueous phase containing total RNA was purified using RNeasy plus kit (Qiagen). RNA was converted to eDNA with cDNA synthesis kit (Bio-Rad). qRT-PCR was performed with SYBR green master mix (Bio-Rad) on Bio-Rad iCycler RT-PCR detection system. Primers used are listed on Table 4 below.
RNA Isolation. […] From the total RNA, poly(A)^+ RNA was selected using Oligo(dT)25-Dynabeads (Life technologies) according to the manufacturer's protocol.

For assay [1], the system named is Apc-null Lgr5-GFP^hi ISCs and Lgr5-GFP^low progenitors. In words: In vitro adenomatous organoid formation by Apc-null ISCs and progenitors. It counts as cell-based, mouse. From the text: To test this possibility, the present inventors generated Apc^loxp/loxp; Lgr5-EGFP-IRES-CreERT2 mice to assess whether pharmacological PPAR-δ activation modifies the tumorigenic capacity of the Lgr5-GFP^low progenitors. Injection with tamoxifen leads to Apc-loss in the Lgr5-GFP^hi ISCs, which in turn generate Apc-null Lgr5-GFP^low progenitors. Four days after tamoxifen administration, we flow sorted Apc-null Lgr5-GFP^hi ISCs and Lgr5-GFP^low progenitors from vehicle and PPAR-δ agonist treated mice to assess the tumor-forming potential of these populations using separate assays (FIG. 7B): first, we examined their ability to give rise to adenomatous organoids in culture; and second, we interrogated the ability of 10,000 freshly sorted stem and progenitor cells to initiate adenomatous lesions in syngeneic recipient colons.
(§1) Isolated ISCs or progenitor cells were centrifuged for 5 minutes at 250 g, re-suspended in the appropriate volume of crypt culture medium (500-1,000 cells μl^−1), then seeded onto 25-30 μl Matrigel™ (Corning 356231 growth factor reduced) containing 1 μM jagged (Ana-Spec) in a flat bottom 48-well plate (Corning 3548). Alternatively, ISCs and Paneth cells were mixed after sorting in a 1:1 ratio, centrifuged, and then seeded onto Matrigel™. The Matrigel™ and cells were allowed to solidify before adding 300 μl of crypt culture medium. The crypt media was changed every second or third day. Organoid bodies were quantified on days 3, 7 and 10 of culture, unless otherwise specified. With respect to the study results presented in FIGS. 14-16, organoid bodies were quantified on day 3-4. In secondary experiments, individual primary organoids were mechanically dissociated and re-plated, or organoids were dissociated for 10 minutes in TrypLE Express at 32° C., re-suspended with SMEM (Life Technologies), centrifuged and re-suspended in cold SMEM with viability dye 7-AAD. Live cells were sorted and seeded onto Matrigel™ as previously described.

The test system of another assay is β-catenin. In words: β-catenin nuclear localization by immunostaining. It counts as in vivo, mouse. The note with it: GW501516-treated mice vs vehicle.
In assay [2] the test system is Olfm4+ ISCs and Cryptdin 4+ Paneth cells. In words: In situ hybridization for Olfm4 and Cryptdin 4, proximal jejunum. It counts as in vivo, mouse. The note with it: GW501516-treated mice vs vehicle. From the text:
The in situ hybridization probes used in this study correspond to expressed sequence tags or fully sequenced cDNAs obtained from Open Biosystems. The accession numbers (IMAGE mouse cDNA clone in parenthesis) for these probes are as follows: mouse Olfm4 BC141127 (9055739), mouse Cryptdin 4 BC134360 (40134597). Both sense and antisense probes were generated to ensure specificity by in vitro transcription using DIG RNA labelling mix (Roche) according to the manufacturer's instructions and to previously published detailed methods.^24,44

The subject of a further assay is Lgr5-GFP^low progenitors. Briefly: Organoid formation by sorted Lgr5-GFP^low progenitors. The format is cell-based, mouse. The conditions noted are these: progenitors from GW501516-treated mice, vs vehicle. Here is the method:
as §1

Regarding `Cc1cc(SCc2sc(-c3ccc(C(F)(F)F)cc3)nc2C)ccc1OCC(=O)O` [GW501516, 2-[2-methyl-4-[[4-methyl-2-[4-(trifluoromethyl)phenyl]-1,3-thiazol-5-yl]methylsulfanyl]phenoxy]acetic acid], the “transcription of β-catenin target genes (Bmp4, Jag1, Jag2, Edn3)” value in the assay on β-catenin target genes is on record as “induction”. Moreover, in the assay with PPAR-δ target genes, the “PPAR-δ target proteins in ISCs and progenitors” value was “strong induction; also recorded: upregulated”. Further, in assay [1] (GW501516-treated mice, EN media, vehicle 0.04±0.05), the “in vitro adenoma-initiating potential of Apc-null Lgr5-GFP^low progenitors” value was 0.18±0.07. For the same compound, the “in vitro adenomatous organoid-forming potential of Apc-null Lgr5-GFP^hi ISCs” value in assay [1] (GW501516-treated vs vehicle) is recorded as “not altered”; in assay [1] (GW501516-treated vs vehicle, listed as PPAR-δ agonist) it was “as clonogenic as those from vehicle controls”. The “increase of in vitro adenomatous organoid forming potential of Apc-null Lgr5-GFP^low progenitors” value in assay [1] (GW501516-treated vs vehicle, EN media) was “four-fold”. In addition, the “nuclear β-catenin in stem and progenitor cells of crypts (intestinal sections)” value in the assay on β-catenin is “increased nuclear β-catenin localization”; in the assay with β-catenin (listed as PPAR-δ agonist) it was “greater percentage”. Moreover, the “nuclear β-catenin localization in flow sorted ISCs and progenitors” value is “increased nuclear β-catenin localization” in the assay on β-catenin and “more nuclear β-catenin accumulation” in the assay with β-catenin (listed as PPAR-δ agonist). In addition, the “Cryptdin 4+ Paneth cell numbers” value in assay [2] is reported as “no impact; also recorded: remained unchanged”. Moreover, the “Olfm4+ ISC numbers per jejunal crypt” value in assay [2] was “augmented; also recorded: increased”. The “organoid-initiating capacity of Lgr5-GFP^low progenitors” value is “possess the potential to autonomously form organoid bodies; also recorded: conferred organoid-initiating capacity” in the assay on Lgr5-GFP^low progenitors, “sufficient to enhance” with Lgr5-GFP^low progenitors (listed as GW501515) and “capable of forming organoids” in the assay with Lgr5-GFP^low progenitors (listed as PPAR-δ agonist).
